Reference: US5478856A, “Styrene derivatives and salts thereof” (Taiho Pharmaceutical Co., Ltd., priority 1992, dated 1995)

How the values were obtained:
5-Lipoxygenase = target: T1, 5-Lipoxygenase (Cavia porcellus, UniProt A0A286X958); assay: 5-Lipoxygenase inhibiting activity (5-hydroxyeicosatetraenoic acid formation from 14C-arachidonic acid, cytosol fraction of polymorphonuclear leucocytes); format: biochemical; conditions: guinea pig polymorphonuclear leucocyte cytosol, 5-hydroxyeicosatetraenoic acid radioactivity
T1 construct: the polymorphonuclear leucocytes were collected and the cytosol fraction was obtained as an enzyme source; endogenous in cells; host or cells: guinea pig peritoneal polymorphonuclear leucocytes (casein-elicited), cytosol fraction
T1 sequence (A0A286X958 1-674): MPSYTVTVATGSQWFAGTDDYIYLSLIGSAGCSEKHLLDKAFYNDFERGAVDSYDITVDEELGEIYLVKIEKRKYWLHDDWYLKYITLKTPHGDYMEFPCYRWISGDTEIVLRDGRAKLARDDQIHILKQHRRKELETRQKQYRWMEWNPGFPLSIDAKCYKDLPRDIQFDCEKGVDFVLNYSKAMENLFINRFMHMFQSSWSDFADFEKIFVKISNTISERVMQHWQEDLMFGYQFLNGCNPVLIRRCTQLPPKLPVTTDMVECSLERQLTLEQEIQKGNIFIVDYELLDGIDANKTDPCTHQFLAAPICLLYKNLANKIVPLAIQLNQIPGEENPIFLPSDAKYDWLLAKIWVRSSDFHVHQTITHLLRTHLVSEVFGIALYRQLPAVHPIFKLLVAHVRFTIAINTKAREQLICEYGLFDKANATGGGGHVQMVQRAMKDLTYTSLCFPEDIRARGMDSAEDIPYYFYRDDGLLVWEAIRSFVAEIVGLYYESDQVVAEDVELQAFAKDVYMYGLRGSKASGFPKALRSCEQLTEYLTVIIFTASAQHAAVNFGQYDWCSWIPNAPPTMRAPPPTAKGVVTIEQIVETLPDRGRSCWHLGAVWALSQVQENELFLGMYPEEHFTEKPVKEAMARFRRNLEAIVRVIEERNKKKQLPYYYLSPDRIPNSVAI
Description: (2) 5-Lipoxygenase inhibiting activity
This assay was carried out by the method described in Kenkichi Ochi et al., J. Biol. Chem., 258, 5754-5758 (1983).
Casein was injected into the abdominal cavity of a guinea pig, and the polymorphonuclear leucocytes were collected and the cytosol fraction was obtained as an enzyme source. ^14 C-arachidonic acid was reacted with the enzyme and the test drug at various concentrations over a predetermined period of time. The obtained 5-hydroxyeicosatetraenoic acid was separated by thin layer chromatography and the radioactivity was determined. The IC50 values were calculated by the comparison with the radioactivity of the control.

Cyclooxygenase = Cyclooxygenase inhibiting effect (prostaglandin E2 formation from 14C-arachidonic acid, seminal vesicular gland microsomes); format: biochemical; conditions: seminal vasicular gland microsomes, prostaglandin E2 radioactivity
Description: (1) Cyclooxygenase inhibiting effect
This assay was carried out by the method described in Russell J. Taylor et al., Biochem. Pharmacol., 25, 2479-2484 (1976).
^14 C-arachidonic acid was reacted with seminal vasicular gland microsomes and the test drugs at various concentrations over a predetermined period of time and the obtained prostaglandin E2 was separated by thin layer chromatography. The radioactivity of prostaglandin E2 was determined by liquid scintillation counter. The IC50 values were calculated by the comparison with the radioactivity of the control.

| Compound | IC50 (5-Lipoxygenase) [µM] | IC50 (Cyclooxygenase) [µM] |
| --- | --- | --- |
| CCCC(=Cc1cc(OC)c(O)c(OC)c1)C(=O)NCCc1onc(-c2ccc(OC)cc2)c1-c1ccc(OC)cc1 [Compound 4] | 0.18 | 0.95 |
| COc1ccc(-c2noc(CCN(CC(=O)O)C(=O)C=CC=Cc3cc(OC)c(O)c(OC)c3)c2-c2ccc(OC)cc2)cc1 [Compound 23] | 0.09 | 2.94 |
| COc1ccc(-c2noc(CCNC(=O)C(C#N)=Cc3cc(OC)c(O)c(OC)c3)c2-c2ccc(OC)cc2)cc1 [Compound 2] | 0.65 | 4.05 |
| COc1ccc(-c2noc(CCNC(=O)C(=Cc3cc(OC)c(O)c(OC)c3)c3ccccn3)c2-c2ccc(OC)cc2)cc1 [Compound 6] | 0.62 | 1.38 |
| CCOC(=O)C(=Cc1cc(OC)c(O)c(OC)c1)C(=O)NCCc1onc(-c2ccc(OC)cc2)c1-c1ccc(OC)cc1 [Compound 1] | 1.17 | 2.87 |
| COc1ccc(-c2noc(CCNC(=O)C(=Cc3cc(OC)c(O)c(OC)c3)C(=O)N(C)C)c2-c2ccc(OC)cc2)cc1 [Compound 8] | 0.26 | 4.76 |
| COc1ccc(-c2noc(CCNC(=O)C(=Cc3cc(OC)c(O)c(OC)c3)NC(C)=O)c2-c2ccc(OC)cc2)cc1 [Compound 18] | 0.18 | 0.11 |
| COc1ccc(-c2noc(C(C#N)=Cc3cc(OC)c(O)c(OC)c3)c2-c2ccc(OC)cc2)cc1 [Compound 20] | 0.24 | 1.85 |
| COc1ccc(-c2noc(CCNC(=O)C(C#N)=CC=Cc3cc(OC)c(O)c(OC)c3)c2-c2ccc(OC)cc2)cc1 [Compound 11] | 0.24 | 0.68 |
| COCC(=Cc1cc(OC)c(O)c(OC)c1)C(=O)NCCc1onc(-c2ccc(OC)cc2)c1-c1ccc(OC)cc1 [Compound 3] | 0.3 | 1.2 |
| COc1ccc(-c2noc(CCNC(=O)C(=Cc3cc(OC)c(O)c(OC)c3)c3cccs3)c2-c2ccc(OC)cc2)cc1 [Compound 7] | 0.08 | 0.17 |
